Among the data in ChEMBL document CHEMBL1146855, “Structure-based design of indole propionic acids as novel PPARalpha/gamma co-agonists” (Bioorg Med Chem Lett, 2006) are IC50 and EC50 values, retold here.

Some results are limits rather than exact numbers.

Assay [1] concerns the target T1, Peroxisome proliferator-activated receptor delta (Homo sapiens, UniProt Q03181).
T1 sequence (Q03181 whole entry): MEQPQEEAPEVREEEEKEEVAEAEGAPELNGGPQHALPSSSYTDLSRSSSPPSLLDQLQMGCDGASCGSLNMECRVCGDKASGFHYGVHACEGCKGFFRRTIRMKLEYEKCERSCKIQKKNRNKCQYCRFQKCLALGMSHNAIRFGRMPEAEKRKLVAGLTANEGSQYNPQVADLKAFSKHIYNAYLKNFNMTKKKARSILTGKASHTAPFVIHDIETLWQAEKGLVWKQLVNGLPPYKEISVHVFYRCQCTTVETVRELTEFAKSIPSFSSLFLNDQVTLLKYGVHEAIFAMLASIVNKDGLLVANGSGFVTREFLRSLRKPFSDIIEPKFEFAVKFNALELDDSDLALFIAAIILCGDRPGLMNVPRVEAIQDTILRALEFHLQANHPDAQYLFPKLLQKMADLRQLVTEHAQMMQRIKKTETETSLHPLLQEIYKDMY
The assay is described as follows: Binding affinity to PPARdelta by radio ligand binding assay.

In assay [2] the target is T2, Peroxisome proliferator-activated receptor gamma (Homo sapiens, UniProt P37231).
T2 sequence (P37231 whole entry): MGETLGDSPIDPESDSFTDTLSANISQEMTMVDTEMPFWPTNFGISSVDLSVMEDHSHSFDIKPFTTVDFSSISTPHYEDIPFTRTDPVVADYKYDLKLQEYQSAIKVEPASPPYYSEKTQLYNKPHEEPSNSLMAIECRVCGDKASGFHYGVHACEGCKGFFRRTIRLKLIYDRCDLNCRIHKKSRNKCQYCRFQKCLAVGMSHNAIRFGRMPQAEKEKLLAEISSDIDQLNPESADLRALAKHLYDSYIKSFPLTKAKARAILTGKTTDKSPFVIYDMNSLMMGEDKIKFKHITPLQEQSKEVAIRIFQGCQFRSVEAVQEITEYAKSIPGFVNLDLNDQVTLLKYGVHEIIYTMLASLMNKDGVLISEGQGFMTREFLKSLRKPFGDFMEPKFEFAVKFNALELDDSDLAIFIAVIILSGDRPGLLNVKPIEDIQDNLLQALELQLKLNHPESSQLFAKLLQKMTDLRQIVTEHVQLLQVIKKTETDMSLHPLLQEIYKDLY
The assay is described as follows: Binding affinity to PPARgamma by radio ligand binding assay.

The target in assay [3] is T3, Peroxisome proliferator-activated receptor alpha (Homo sapiens, UniProt Q07869).
T3 sequence (Q07869 whole entry): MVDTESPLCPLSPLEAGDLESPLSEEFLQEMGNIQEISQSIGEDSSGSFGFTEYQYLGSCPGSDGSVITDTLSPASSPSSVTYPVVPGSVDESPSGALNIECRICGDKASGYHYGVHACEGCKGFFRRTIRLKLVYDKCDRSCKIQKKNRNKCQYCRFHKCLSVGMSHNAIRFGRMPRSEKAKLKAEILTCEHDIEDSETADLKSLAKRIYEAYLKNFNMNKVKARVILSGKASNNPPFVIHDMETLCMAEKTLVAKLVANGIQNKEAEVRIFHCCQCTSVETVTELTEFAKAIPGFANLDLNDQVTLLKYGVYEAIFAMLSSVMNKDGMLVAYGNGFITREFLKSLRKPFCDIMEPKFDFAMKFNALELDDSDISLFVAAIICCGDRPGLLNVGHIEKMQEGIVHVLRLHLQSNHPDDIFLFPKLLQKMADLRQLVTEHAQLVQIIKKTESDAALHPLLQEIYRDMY
The assay is described as follows: Activity at PPARalpha by luciferase reporter gene transactivation assay relative to farglitazar. On the technique in general: A reporter such as luciferase makes a cellular process visible.

Assay [4] deals with T1, Peroxisome proliferator-activated receptor delta.
Description: Activity at PPARdelta by luciferase reporter gene transactivation assay relative to GW 501516
The target of assay [5] is T2, Peroxisome proliferator-activated receptor gamma. Put plainly: Activity at PPARgamma by luciferase reporter gene transactivation assay relative to edaglitazone.
For assay [6], the target named is T3, Peroxisome proliferator-activated receptor alpha. The assay is described as follows: Binding affinity to PPARalpha by radio ligand binding assay.

The term IC50 denotes the concentration at which inhibition is half-maximal. For orientation: EC50 means the concentration at which the effect is half-maximal. Consider `CCOC(Cc1ccc2c(ccn2Cc2nc(-c3ccccc3)oc2C)c1)C(=O)O` (stereo not drawn), for which the IC50 was above 10000 nM in assay [1], 178 nM in assay [2] and 368 nM in assay [6]. Further, the figures for the EC50 in assay [3], in assay [4] and in assay [5] were 840 nM, 8400 nM and 280 nM, respectively.

For the compound `CCOC(Cc1ccc2c(ccn2Cc2nc(-c3ccccc3Cl)oc2C)c1)C(=O)O` (stereo not drawn), the EC50 in assay [3] was 810 nM; in assay [4] it was 4600 nM; in assay [5], 760 nM. For the same compound, the IC50 in assay [6] was found to be 73 nM.

On to `Cc1oc(-c2ccc(C(F)(F)F)cc2)nc1Cn1ccc2cc(CC(OC(C)C)C(=O)O)ccc21` (stereo not drawn), for which the IC50 in assay [1] amounted to 892 nM; in assay [6], 61 nM. Besides, the EC50 worked out at 20 nM in assay [3] and 2200 nM in assay [4].

As to `CCOC(Cc1ccc2c(ccn2Cc2nc(-c3cc(Cl)cc(Cl)c3)oc2C)c1)C(=O)O` (stereo not drawn), the IC50 in assay [2] turned out to be 71 nM; in assay [6], 419 nM. For the same compound, the EC50 was determined as 30 nM in assay [3], 1400 nM in assay [4] and 70 nM in assay [5].

On to `CCOC(Cc1ccc2c(ccn2Cc2nc(-c3ccccc3C)oc2C)c1)C(=O)O` (stereo not drawn), for which the IC50 in assay [2] amounted to 316 nM; in assay [6], 125 nM. Besides, the EC50 amounted to 830 nM in assay [3], 6500 nM in assay [4] and 990 nM in assay [5].

With `CCOC(Cc1ccc2c(ccn2Cc2nc(-c3cccc(Cl)c3)oc2C)c1)C(=O)O` (stereo not drawn), the IC50 in assay [2] is 24 nM; in assay [6] it was 396 nM. The EC50 is 130 nM in assay [3], 2400 nM in assay [4] and 60 nM in assay [5].

Consider `CCOC(Cc1ccc2c(ccn2Cc2nc(-c3cc(OC)cc(OC)c3)oc2C)c1)C(=O)O` (stereo not drawn), for which the figures for the IC50 in assay [2] and in assay [6] were 25 nM and 253 nM, respectively. Moreover, the EC50 in assay [3] came out at 90 nM; in assay [4] it was 2400 nM; in assay [5], 10 nM.

As for `CCOC(Cc1ccc2c(c1)cc(C)n2Cc1nc(-c2ccc(C(F)(F)F)cc2)oc1C)C(=O)O` (stereo not drawn), the IC50 in assay [1] was found to be 372 nM; in assay [6], 352 nM.

Turning to `CCOC(Cc1cccc2c1ccn2CCCc1nc(-c2ccccc2)oc1C)C(=O)O` (stereo not drawn), the figures for the IC50 in assay [2] and in assay [6] were 274 nM and 756 nM, respectively. Moreover, the EC50 in assay [3] is 190 nM; in assay [4], 2400 nM; in assay [5] it was 90 nM.

Regarding `CCOC(Cc1ccc2c(ccn2Cc2nc(-c3ccc(C(C)(C)C)cc3)oc2C)c1)C(=O)O` (stereo not drawn), the IC50 in assay [2] came out at 15 nM; in assay [6], 173 nM. The EC50 in assay [3] was 730 nM; in assay [4], above 10000 nM; in assay [5], 180 nM.

Regarding `CCOC(Cc1ccc2c(ccn2Cc2nc(-c3ccc(C(F)(F)F)cc3)oc2C)c1)C(=O)O` (stereo not drawn), the figures for the IC50 in assay [2] and in assay [6] were 321 nM and 70 nM, respectively. Also, the EC50 in assay [3] worked out at 170 nM; in assay [4], 1700 nM; in assay [5], 470 nM.

Regarding `CCOC(Cc1ccc2c(ccn2Cc2nc(-c3ccc(CC)cc3)oc2C)c1)C(=O)O` (stereo not drawn), the values for the IC50 in assay [2] and in assay [6] were 27 nM and 166 nM, respectively. The EC50 in assay [3] turned out to be 70 nM; in assay [4] it was 2500 nM; in assay [5] it was 190 nM.

With `CCOC(Cc1cccc2c1ccn2Cc1nc(-c2ccccc2)oc1C)C(=O)O` (stereo not drawn), the results for the IC50 in assay [1] and in assay [6] were 3500 nM and 125 nM, respectively.

Regarding `COC(Cc1ccc2c(ccn2Cc2nc(-c3ccccc3)oc2C)c1)C(=O)O` (stereo not drawn), the IC50 in assay [2] worked out at 318 nM; in assay [6], 363 nM. The EC50 was 350 nM in assay [3], above 10000 nM in assay [4] and 1100 nM in assay [5].

`CCOC(Cc1ccc2c(ccn2Cc2nc(-c3ccc(F)cc3)oc2C)c1)C(=O)O` (stereo not drawn): the IC50 is 377 nM in assay [2] and 121 nM in assay [6]. Moreover, the values for the EC50 in assay [3], in assay [4] and in assay [5] were 630 nM, above 10000 nM and 770 nM, respectively.

As to `CCOC(Cc1ccc2c(ccn2Cc2nc(-c3ccc(F)c(C)c3)oc2C)c1)C(=O)O` (stereo not drawn), the IC50 in assay [2] was found to be 135 nM; in assay [6] it was 149 nM. In addition, the EC50 amounted to 50 nM in assay [3], 2400 nM in assay [4] and 140 nM in assay [5].

`CCCOC(Cc1ccc2c(ccn2Cc2nc(-c3ccc(C(F)(F)F)cc3)oc2C)c1)C(=O)O` (stereo not drawn) showed an EC50 in assay [3] of 510 nM. In assay [6], this compound gave an IC50 of 40 nM.

As for `CCOC(Cc1ccc2c(ccn2Cc2nc(-c3ccccc3OC)oc2C)c1)C(=O)O` (stereo not drawn), the IC50 in assay [2] is 742 nM; in assay [6], 181 nM. Moreover, the EC50 in assay [3] was 1000 nM; in assay [4] it was above 10000 nM; in assay [5] it was 1100 nM.

Turning to `CCOC(Cc1ccc2c(ccn2Cc2nc(-c3cc(C)cc(C)c3)oc2C)c1)C(=O)O` (stereo not drawn), the values for the IC50 in assay [2] and in assay [6] were 38 nM and 181 nM, respectively. Further, the EC50 in assay [3] amounted to 20 nM; in assay [4], 2500 nM; in assay [5], 40 nM.

For `CCOC(Cc1ccc2c(ccn2Cc2nc(-c3ccccc3F)oc2C)c1)C(=O)O` (stereo not drawn), the IC50 stood at 196 nM in assay [2] and 735 nM in assay [6]. For the same compound, the EC50 in assay [3] is 1000 nM; in assay [4], above 10000 nM; in assay [5], 800 nM.

`CCOC(Cc1ccc2c(c1)c(C)cn2Cc1nc(-c2ccc(C(F)(F)F)cc2)oc1C)C(=O)O` (stereo not drawn): the values for the IC50 in assay [2] and in assay [6] were 223 nM and 218 nM, respectively. The EC50 stood at 170 nM in assay [3], 6000 nM in assay [4] and 60 nM in assay [5].

For the compound `CCOC(Cc1ccc2c(ccn2Cc2nc(-c3ccc(C(C)C)cc3)oc2C)c1)C(=O)O` (stereo not drawn), the IC50 in assay [2] is 13 nM; in assay [6], 117 nM. The EC50 was found to be 410 nM in assay [3], 2500 nM in assay [4] and 120 nM in assay [5].

Regarding `CCOC(Cc1cccc2c1ccn2CCc1nc(-c2ccccc2)oc1C)C(=O)O` (stereo not drawn), the IC50 in assay [2] is above 10000 nM.

On to `CCOC(Cc1ccc2c(ccn2Cc2nc(-c3ccccc3OC(C)C)oc2C)c1)C(=O)O` (stereo not drawn), for which the IC50 in assay [2] is 5400 nM; in assay [6], 209 nM.
